“Also recorded” adds a separate entry of the source. Like-named read-outs stand apart in the source and are kept apart here.
Assays:
[1] = test system: ferrous So H-NOX; assay: Stopped-flow binding kinetics of gaseous ligands to ferrous So H-NOX; design: species or system Shewanella oneidensis; details: for kon: ferrous So H-NOX, room temperature, anaerobic, CO: 6c CO-heme-His complex
[2] = target: Tt H-NOX; details: ref [11], cited from earlier work; for Kd / koff / kon: NO: 6c NO-heme-His complex
[3] = test system: soluble guanylyl cyclase (sGC); details: cited from earlier work; for koff / Kd / kon: ref [18]
[4] = test system: Vc H-NOX; details: ref [9], cited from earlier work
[5] = test system: Cb H-NOX; details: ref [11], cited from earlier work
[6] = target: Ns H-NOX; details: cited from earlier work; for Kd / koff / kon: ref [10],[18]
[7] = target: Ms sGC NT2; details: read-out: KD(CO); Ms sGC NT2, lacking 48 residues from α-subunit N-terminus and the catalytic domains; ref [27]; cited from earlier work
[8] = target: full length sGC from Manduca sexta (Ms sGC); details: read-out: KD(CO), ref [27]; cited from earlier work
[9] = target: β H-NOX/PAS subunit of Ms sGC; details: read-out: KD(CO); β H-NOX/PAS subunit alone; ref [27]; cited from earlier work
[10] = test system: Vc H-NOX; assay: Gaseous ligand binding kinetics of Vc H-NOX; design: species or system Vibrio cholera; details: reacted with 600 µM O2; data not shown
[11] = calculated as koff/kon, NO: 6c NO-heme-His complex
[12] = Intermediate NO-heme--NO(−-His), estimated based on computer simulations
[13] = NO: 6c NO-heme-His complex, O2: high pressure cell
[14] = O2, estimated based on the sliding scale rule

| Molecule | Kd [1, 11] [µM] | kon ([1]; NO: 6c NO-heme-His complex) [M⁻¹ s⁻¹] | Kd [2] [nM] | koff [2] [s⁻¹] | kon [2] [M⁻¹ s⁻¹] | Kd ([3]; NO: 6c NO-heme-His complex) [µM] | koff ([3]; NO: 6c NO-heme-His complex) [s⁻¹] | kon ([3]; NO: 6c NO-heme-His complex) [M⁻¹ s⁻¹] | Kd ([4]; NO: 6c NO-heme-His complex) [µM] | koff ([4]; NO: 6c NO-heme-His complex) [s⁻¹] | kon ([4]; NO: 6c NO-heme-His complex) [M⁻¹ s⁻¹] | Kd ([5]; NO: 6c NO-heme-His complex) [nM] | koff ([5]; NO: 6c NO-heme-His complex) [s⁻¹] | kon ([5]; NO: 6c NO-heme-His complex) [M⁻¹ s⁻¹] | Kd [6, 13] [µM] | koff ([6]; NO: 6c NO-heme-His complex) [s⁻¹] | kon ([6]; NO: 6c NO-heme-His complex) [M⁻¹ s⁻¹] | other results |
| --- | --- | --- | --- | --- | --- | --- | --- | --- | --- | --- | --- | --- | --- | --- | --- | --- | --- | --- |
| nitric oxide [NO] | 0.00015 | 1.5e+09 | 0.023 | 0.0034 | 1.5e+08 | 0.054 | 27 | 1.4e+08 | 0.00027 | 0.3 | 1.1e+09 | 0.08 | 0.012 | 1.5e+08 | 0.00017 | 0.05 | 3e+08 | koff,5c(NO) ([1]; 5c heme-NO complex, CO displacement method): 0.0013 s⁻¹; koff, dissociation rate of NO from the quaternary intermediate ([1]; Intermediate NO-heme--NO(−-His), y-intercept of secondary plot): very small; also recorded: small; formation rate of the 5c heme-NO complex (D → E) ([1]; not measured directly, significantly faster than kobs at 30 µM NO): > 600 s⁻¹; koff ([3]; 5c heme-NO complex): 10^−4 – 10^−3 s^−1; koff ([3]; Intermediate NO-heme--NO(−-His)): 26 s⁻¹; conversion rate from 6c NO complex to 5c NO-heme complex ([3]; ref [23]): 8.5 s⁻¹; koff ([4]; 5c heme-NO complex): 10^−3 – 10^−2 s^−1; koff [4, 12]: 4.5 × 10^3 ^‡ s^−1; kon [4, 12]: 2.5 × 10^7 ^‡ M^−1s^−1; koff ([5]; 5c heme-NO complex): 0.0011 s⁻¹; kon [5, 12]: 1.8 × 10^7 ^‡ M^−1s^−1; Kd ([5]; read-out: KD(NO)(apparent), 5c heme-NO complex): 0.0073 nM; Kd ([6]; 2nd 6c NO-heme-His complex): 0.8 µM; koff ([6]; 2nd 6c NO-heme-His complex): 1.9 s⁻¹; kon ([6]; 2nd 6c NO-heme-His complex): 2.4e+06 M⁻¹ s⁻¹ |
| [C-]#[O+] [CO, carbon monoxide] | 0.85 | 820000 | 160 | 0.5 | 3.3e+06 | 260 | 10.7 | 40000 | 0.77 | 0.85 | 1.1e+06 | 670 | 1.0 | 1.5e+06 | 1.4 | 3.6 | 3e+06 | Kd [7]: 50 to 100 µM; Kd [8]: 50 to 100 µM; Kd [9]: 0.2 µM |
| O=O [O2] |  |  | 44 | 1.9 | 4.3e+07 |  |  |  |  |  |  | 53000 |  |  | 13000 |  |  | O2 binding ([1]; O2-saturated buffer, final [O2] = 600 µM, no oxyferrous intermediate): does not bind O2; Kd [1, 14]: ~4500 µM; autoxidation of oxyferrous heme [2]: no autoxidation is observed; Kd [4, 14]: ~1300 µM; autoxidation rate [10]: ~ 4 × 10^−3 s^−1; autoxidation rate ([5]; reacted with 600 µM O2): 0.02 s⁻¹; autoxidation rate ([6]; ref [10]): 1.4e-05 s⁻¹ |

Source: article PMC5559315 (Biochimie, 2017)
